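Grown in 96-well plates, cells were treated for 48 hours with each compound at five concentrations. Insufficient inhibition: endpoint recorded as highest concentration tested. Here, GI50 denotes the concentration required for 50% inhibition of growth.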 Active and inactive are the calls of the source. No stated cut-off is given here; in the data, active = GI50 up to about 1.1 µM and inactive = higher.
Tests used:
Experiment in all cases: NCI-60 cell line screen, 48 h
[1] = test system: A498
[2] = test system: A549
[3] = test system: ACHN
[4] = test system: CCRF-CEM
[5] = test system: COLO 205
[6] = test system: HCT-116
[7] = test system: HCT-15
[8] = test system: HOP-62
[9] = test system: K562
[10] = test system: MCF7
[11] = test system: NCI-H226
[12] = test system: NCI-H460
[13] = test system: OVCAR-3
[14] = test system: RPMI-8226
[15] = test system: SK-MEL-28
[16] = test system: SK-MEL-2
[17] = test system: SR
[18] = test system: SW-620
[19] = test system: T47D
[20] = test system: UACC-62

Structure (SMILES)	GI50 [1]	GI50 [2]	GI50 [3]	GI50 [4]	GI50 [5]	GI50 [6]	GI50 [7] [µM]	GI50 [8]	GI50 [9]	GI50 [10]	GI50 [11]	GI50 [12]	GI50 [13]	GI50 [14]	GI50 [15]	GI50 [16]	GI50 [17]	GI50 [18]	GI50 [19]	GI50 [20]
COc1cc(C2c3cc4c(cc3OC(N3CCCC3)C2C)OCO4)cc(OC)c1O (stereo not drawn)	21.1 µM (inactive)	19 µM (inactive)	28.6 µM (inactive)	15.1 µM (inactive)	23.1 µM (inactive)	9.98 µM (inactive)	14	11.6 µM (inactive)	4.88 µM (inactive)	9.93 µM (inactive)	25.5 µM (inactive)	16.3 µM (inactive)	13.5 µM (inactive)	45.6 µM (inactive)	> 43.9 µM (inactive)	14.8 µM (inactive)	5.89 µM (inactive)	6.89 µM (inactive)	31.8 µM (inactive)	5.16 µM (inactive)
CC1=NN(C(=O)CC(=O)Nc2ccc(Cl)cc2)C(=O)C1/N=N\c1ccc(S(=O)(=O)c2ccc(/N=N/C3C(=O)N(C(=O)CC(=O)Nc4ccc(Cl)cc4)N=C3C)cc2)cc1 (stereo not drawn)	> 100 µM (inactive)	> 100 µM (inactive)	24.7 µM (inactive)	> 100 µM (inactive)	> 100 µM (inactive)	> 100 µM (inactive)	60.8	54.5 µM (inactive)	77.1 µM (inactive)	> 100 µM (inactive)	> 100 µM (inactive)	> 100 µM (inactive)	> 100 µM (inactive)	> 100 µM (inactive)	> 100 µM (inactive)	51.9 µM (inactive)	> 100 µM (inactive)	> 100 µM (inactive)	> 100 µM (inactive)	> 100 µM (inactive)
O=C1NI(C#Cc2ccccc2)c2ccccc21	> 100 µM (inactive)	59 µM (inactive)	–	40.6 µM (inactive)	29.7 µM (inactive)	> 100 µM (inactive)	> 100	> 100 µM (inactive)	> 100 µM (inactive)	22.2 µM (inactive)	> 100 µM (inactive)	> 100 µM (inactive)	> 100 µM (inactive)	43.7 µM (inactive)	> 100 µM (inactive)	> 100 µM (inactive)	> 100 µM (inactive)	> 100 µM (inactive)	53 µM (inactive)	> 100 µM (inactive)
COc1ccc2c(=O)c(-c3cc4c(cc3OC)OCO4)coc2c1	> 100 µM (inactive)	> 100 µM (inactive)	43.7 µM (inactive)	> 100 µM (inactive)	> 100 µM (inactive)	> 100 µM (inactive)	> 100	41.9 µM (inactive)	–	97.3 µM (inactive)	> 100 µM (inactive)	> 100 µM (inactive)	> 100 µM (inactive)	> 100 µM (inactive)	> 100 µM (inactive)	> 100 µM (inactive)	> 100 µM (inactive)	> 100 µM (inactive)	> 100 µM (inactive)	> 100 µM (inactive)
CC1(C)Cc2nc3c(cc2C(=O)C1/C=N/C(C#N)=C(\N)C#N)C(=O)C(/C=N/C(C#N)=C(\N)C#N)C(C)(C)C3 (stereo not drawn)	4.17 µM (inactive)	2.6 µM (inactive)	2.28 µM (inactive)	2.39 µM (inactive)	2.54 µM (inactive)	1.54 µM (inactive)	2.36	2.33 µM (inactive)	3.05 µM (inactive)	2.15 µM (inactive)	2.84 µM (inactive)	2.61 µM (inactive)	2.77 µM (inactive)	2.74 µM (inactive)	1.98 µM (inactive)	2.2 µM (inactive)	3.08 µM (inactive)	2.57 µM (inactive)	1.32 µM (inactive)	1.83 µM (inactive)
O=C1CSC(c2ccccc2)N1c1nc2cc3sc(N4C(=O)CSC4c4ccccc4)nc3cc2s1 (stereo not drawn)	> 100 µM (inactive)	8.17 µM (inactive)	35.6 µM (inactive)	4.35 µM (inactive)	2.85 µM (inactive)	24.6 µM (inactive)	10.2	> 100 µM (inactive)	47.4 µM (inactive)	12.9 µM (inactive)	15.8 µM (inactive)	3.1 µM (inactive)	36.6 µM (inactive)	71.1 µM (inactive)	> 100 µM (inactive)	63.7 µM (inactive)	16.5 µM (inactive)	9.95 µM (inactive)	61 µM (inactive)	56.8 µM (inactive)
COC1CC(O[C@H]2CC[C@@]3(C)[C@@H](CC[C@]4(O)[C@@H]3CC[C@]3(C)[C@@H](C(C)=O)[C@H](OC(=O)CC(C)C)[C@@H](OC(=O)c5ccccc5)[C@@]34O)C2)OC(C)C1OC1CC(OC)C(OC2OC(C)C(O)C(OC)C2O)C(C)O1 (stereo partly drawn)	> 25 µM (inactive)	7.89 µM (inactive)	24.4 µM (inactive)	17.8 µM (inactive)	5.13 µM (inactive)	10.4 µM (inactive)	9.95	16 µM (inactive)	11 µM (inactive)	11.4 µM (inactive)	13.6 µM (inactive)	9.53 µM (inactive)	11.8 µM (inactive)	6.12 µM (inactive)	> 25 µM (inactive)	> 25 µM (inactive)	11.3 µM (inactive)	> 25 µM (inactive)	8 µM (inactive)	–
COC(=O)c1ccc(/C=C/c2cc(O)ccc2O)cc1	5.15 µM (inactive)	19.8 µM (inactive)	3.19 µM (inactive)	0.242 µM (active)	4.97 µM (inactive)	5.75 µM (inactive)	3.01	27.2 µM (inactive)	1.04 µM (active)	5.14 µM (inactive)	12.6 µM (inactive)	8.45 µM (inactive)	1.18 µM (inactive)	0.333 µM (active)	13.9 µM (inactive)	14.3 µM (inactive)	0.787 µM (active)	3.69 µM (inactive)	1.6 µM (inactive)	2.87 µM (inactive)
Cc1cccc(C(C)(C)C)c1NC(=O)C(C#N)C1=C(Cl)C(=O)c2ccccc2C1=O (stereo not drawn)	24.9 µM (inactive)	21.7 µM (inactive)	14.5 µM (inactive)	0.843 µM (active)	17.5 µM (inactive)	14.1 µM (inactive)	–	17.7 µM (inactive)	3.05 µM (inactive)	15.8 µM (inactive)	9.66 µM (inactive)	19.2 µM (inactive)	15.7 µM (inactive)	8.83 µM (inactive)	16.9 µM (inactive)	16.1 µM (inactive)	3.38 µM (inactive)	14.5 µM (inactive)	9.95 µM (inactive)	18.2 µM (inactive)
O=c1c2ncn(C3CCCO3)c2n(-c2ccccc2)c(=S)n1-c1ccccc1 (stereo not drawn)	> 100 µM (inactive)	> 100 µM (inactive)	> 100 µM (inactive)	> 100 µM (inactive)	> 100 µM (inactive)	> 100 µM (inactive)	> 100	> 100 µM (inactive)	> 100 µM (inactive)	> 100 µM (inactive)	> 100 µM (inactive)	> 100 µM (inactive)	> 100 µM (inactive)	> 100 µM (inactive)	> 100 µM (inactive)	> 100 µM (inactive)	> 100 µM (inactive)	> 100 µM (inactive)	> 100 µM (inactive)	> 100 µM (inactive)
NCCCNCCCCN1CCOC1=O	> 100 µM (inactive)	> 100 µM (inactive)	> 100 µM (inactive)	> 100 µM (inactive)	> 100 µM (inactive)	> 100 µM (inactive)	> 100	> 100 µM (inactive)	> 100 µM (inactive)	> 100 µM (inactive)	> 100 µM (inactive)	> 100 µM (inactive)	> 100 µM (inactive)	> 100 µM (inactive)	> 100 µM (inactive)	> 100 µM (inactive)	> 100 µM (inactive)	> 100 µM (inactive)	> 100 µM (inactive)	> 100 µM (inactive)
CCOC1Oc2ccccc2-c2nc(SC)ncc21 (stereo not drawn)	28.9 µM (inactive)	> 100 µM (inactive)	> 100 µM (inactive)	> 100 µM (inactive)	> 100 µM (inactive)	83.2 µM (inactive)	79.3	–	–	66.1 µM (inactive)	> 100 µM (inactive)	55.6 µM (inactive)	> 100 µM (inactive)	70 µM (inactive)	–	> 100 µM (inactive)	87.1 µM (inactive)	> 100 µM (inactive)	27.4 µM (inactive)	75.5 µM (inactive)
CC1OC(OC2C[C@](O)(C(=O)CF)Cc3c(O)c4c(c(O)c32)C(=O)c2ccccc2C4=O)CC(N)C1O (stereo partly drawn)	0.233 µM (active)	< 0.01 µM (active)	< 0.01 µM (active)	< 0.01 µM (active)	0.0296 µM (active)	< 0.01 µM (active)	0.0588	< 0.01 µM (active)	< 0.0153 µM (active)	< 0.01 µM (active)	< 0.01 µM (active)	< 0.01 µM (active)	0.233 µM (active)	< 0.01 µM (active)	0.177 µM (active)	0.168 µM (active)	< 0.01 µM (active)	< 0.0116 µM (active)	0.0106 µM (active)	< 0.0104 µM (active)
COc1cccc(-c2cc(O)c3cc(Cl)cnc3n2)c1	0.131 µM (active)	0.162 µM (active)	0.127 µM (active)	0.0484 µM (active)	0.113 µM (active)	0.0469 µM (active)	0.114	0.0809 µM (active)	0.0419 µM (active)	0.484 µM (active)	0.08 µM (active)	0.0783 µM (active)	0.0369 µM (active)	0.0378 µM (active)	0.0918 µM (active)	0.757 µM (active)	0.0292 µM (active)	0.0488 µM (active)	30.5 µM (inactive)	0.0589 µM (active)
